Four compounds from paper PMC10064330, “Reversible Dual-Covalent Molecular Locking of the 14-3-3/ERRγ Protein–Protein Interaction as a Molecular Glue Drug Discovery Approach” (Journal of the American Chemical Society, 2023) can be followed below.

The test has as its target T1, 14-3-3γ/ERRγ complex (Homo sapiens, UniProt P61981+P62508).
T1 construct: made in house; host or cells: E. coli NiCo21 (DE3)
The experiment in a line: Differential scanning fluorimetry (DSF). In kind it is binding. The conditions noted are these: 5 μM 14-3-3γ, 200 μM compound, relative to DMSO; for ΔTm at 200 µM: read-out: increase in 14-3-3γ melting temperature (ΔTm). The method, then:
We screened the apo-14-3-3γ, the binary 14-3-3γ/ERRγ (10 eq.) complex, and the ternary complex of 14-3-3γ, the ERRγ phosphopeptide, and compounds 1 and 3–10 (Figure 2c and Figures S4 and S5). The DSF data corroborated the enhanced stabilization observed in the FA data, with molecular locks 5 and 10 eliciting 14-3-3γ melting temperature increases of 4.7 ± 0.2 and 6.0 ± 0.3 °C, respectively (Figure 2c).
Figure S4. Differential Scanning Fluorimetry. Raw melting curves (a-c, g-i) and derivatives of these melting curves (d-f, j-l) of 14-3-3γ (5 µM) with ERRγ (25 µM) incubated with either DMSO (black) or 200 µM compound 1-10.
(1 picture or pasted object on this page, not shown here)
Figure S5. Differential Scanning Fluorimetry. Raw melting curves (a-c) and derivatives of these melting curves (d-f) of 14-3-3γ (5 µM) with ERRγ (25 µM) incubated with either DMSO (black) or 200 µM compound 1-10. (g) […]
Differential Scanning Fluorimetry (DSF)
Different Scanning Fluorimetry (DSF) assays were performed using 40 µL samples containing 5 µM 14-3-3γ, 50 µM ERRγ pS179 9-mer peptide, 200 µM compound (or 1% DMSO) and 5x ProteoOrange (Lumiprobe, 5000x stock in DMSO) in 10 mM Hepes, 150 mM NaCl, 50 µM TCEP (pH 8.0). The samples were heated from 35 °C to 79 °C at a rate of 0.3 °C per 15 s in a CFX96 Touch Real-Time PCR Detection System (Bio-Rad). Fluorescence intensity was determined using excitation 470/40 nm and emission 570/20 nm filters. Based on these melting curves, the negative derivative melting curve is obtained from which the melting temperature Tm was determined. ΔTm values represent the differences in melting temperature relative to the DMSO control. All described melting temperatures are based on three independent experiments from which the average and standard deviations were determined using excel. […]
Washing steps were repeated three more times. […] Fluorescence was measured using the Tecan SPARK plate reader at room temperature with an excitation wavelength of 485 nm and an emission wavelength of 535 nm. Furthermore, fluorescence anisotropy of each sample was measured using the Tecan Infinite F500 plate reader at room temperature (lex: 485 ± 20 nm; lem: 535 ± 25 nm; mirror: Dichroic 510; flashes: 20; integration time: 50 ms; settle time: 0 ms; gain: 50; and Z-position: calculated from well) to determine whether all 14 -3-3γ was captured by the magnetic beads (should results in low anisotropy values in samp les after capturing in comparison to samples […]
On the technique in general: DSF heats the sample and reads unfolding from a dye or from intrinsic fluorescence.

What is called ΔTm is the shift of the melting midpoint relative to a reference.

T1 sequence (P61981 whole entry, other chains not shown): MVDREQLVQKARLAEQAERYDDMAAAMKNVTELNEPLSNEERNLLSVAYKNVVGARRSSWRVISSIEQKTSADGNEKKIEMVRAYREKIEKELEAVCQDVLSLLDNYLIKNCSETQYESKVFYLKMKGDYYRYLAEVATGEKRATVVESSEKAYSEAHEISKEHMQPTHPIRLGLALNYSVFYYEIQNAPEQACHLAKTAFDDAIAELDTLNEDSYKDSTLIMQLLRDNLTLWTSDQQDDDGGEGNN

Turning to `CN(C)CCSSCCN(C)C(=O)c1cccc(F)c1` [compound 1, reference compound], for the setting “ERRγ”, the “decrease in melting temperature” value came out at 2.6 °C. Consider `CN(C)CCNC(=O)c1ccc(C=O)c(F)c1` [compound 3], for which the “increase in 14-3-3γ melting temperature (ΔTm)” value (ERRγ 10 eq.) is recorded as “no significant change”.

`CN(C)CCSSCCN(C)C(=O)c1ccc(C=O)c(F)c1` [compound 5]: for the setting “ERRγ 10 eq.”, the ΔTm at 200 µM is 4.7 ± 0.2 °C. As to `CN(C)CCSSCCN(C)C(=O)c1cc(Br)cc(C=O)c1` [compound 10], the ΔTm at 200 µM (ERRγ 10 eq.) stood at 6 ± 0.3 °C.
